According to the NIST ThermoML archive (doi:10.1021/acs.jced.7b01125):

Experiment: xn = mol fraction of the nth substance listed
Details: Gas, Buoyancy - hydrostatic balance with magnetic suspension - one sinker

[HH] [hydrogen] + C
Details | mass density [kg/m3]
250.05 K, 1999 kPa, x2 = 0.9 | 14.843
250.05 K, 8002 kPa, x2 = 0.9499 | 76.259
250.05 K, 10007 kPa, x2 = 0.9499 | 101.135
250.05 K, 11012 kPa, x2 = 0.9499 | 113.948
250.05 K, 12006 kPa, x2 = 0.9 | 113.812
250.05 K, 12009 kPa, x2 = 0.9499 | 126.528
250.05 K, 13012 kPa, x2 = 0.9 | 124.698
250.05 K, 13015 kPa, x2 = 0.9499 | 138.84
250.05 K, 14014 kPa, x2 = 0.9 | 135.178
250.05 K, 14017 kPa, x2 = 0.9499 | 150.503
250.05 K, 15015 kPa, x2 = 0.9 | 145.138
250.05 K, 15015 kPa, x2 = 0.9499 | 161.379
250.05 K, 16007 kPa, x2 = 0.9499 | 171.395
250.05 K, 16018 kPa, x2 = 0.9 | 154.622
250.05 K, 17011 kPa, x2 = 0.9 | 163.416
250.05 K, 17022 kPa, x2 = 0.9499 | 180.83
250.05 K, 18018 kPa, x2 = 0.9 | 171.725
250.05 K, 18020 kPa, x2 = 0.9499 | 189.342
250.05 K, 18962 kPa, x2 = 0.9499 | 196.737
250.05 K, 19023 kPa, x2 = 0.9 | 179.463
250.05 K, 19940 kPa, x2 = 0.9 | 186.044
260.03 K, 1002 kPa, x2 = 0.4997 | 4.206
260.03 K, 1977 kPa, x2 = 0.4997 | 8.33
260.03 K, 3002 kPa, x2 = 0.4997 | 12.694
260.03 K, 4002 kPa, x2 = 0.4997 | 16.974
260.03 K, 5000 kPa, x2 = 0.4997 | 21.26
260.03 K, 6003 kPa, x2 = 0.4997 | 25.579
260.03 K, 7000 kPa, x2 = 0.4997 | 29.878
260.03 K, 8000 kPa, x2 = 0.4997 | 34.185
260.03 K, 9003 kPa, x2 = 0.4997 | 38.489
260.03 K, 10005 kPa, x2 = 0.4997 | 42.775
260.03 K, 11002 kPa, x2 = 0.4997 | 47.008
260.03 K, 12008 kPa, x2 = 0.4997 | 51.246
260.03 K, 13002 kPa, x2 = 0.4997 | 55.387
260.03 K, 14009 kPa, x2 = 0.4997 | 59.544
260.03 K, 15005 kPa, x2 = 0.4997 | 63.583
260.03 K, 16009 kPa, x2 = 0.4997 | 67.621
260.03 K, 17009 kPa, x2 = 0.4997 | 71.57
260.03 K, 18006 kPa, x2 = 0.4997 | 75.418
260.03 K, 19113 kPa, x2 = 0.4997 | 79.651
260.04 K, 999 kPa, x2 = 0.9499 | 7.267
260.04 K, 1000 kPa, x2 = 0.9 | 6.927
260.04 K, 1999 kPa, x2 = 0.9499 | 14.926
260.04 K, 2000 kPa, x2 = 0.9 | 14.169
260.04 K, 2999 kPa, x2 = 0.9499 | 23.006
260.04 K, 3001 kPa, x2 = 0.9 | 21.762
260.04 K, 3999 kPa, x2 = 0.9499 | 31.515
260.04 K, 5000 kPa, x2 = 0.9499 | 40.497
260.04 K, 5999 kPa, x2 = 0.9499 | 49.941
